What is called IC50 is the midpoint of a concentration-inhibition curve.

The structures appear in SMILES notation.

The target of the experiment is IDO (Homo sapiens, UniProt P14902). The experiment can be described thus: LLE_IDO_ABS_DR (IDO assay).
IDO, sequence (P14902 whole entry): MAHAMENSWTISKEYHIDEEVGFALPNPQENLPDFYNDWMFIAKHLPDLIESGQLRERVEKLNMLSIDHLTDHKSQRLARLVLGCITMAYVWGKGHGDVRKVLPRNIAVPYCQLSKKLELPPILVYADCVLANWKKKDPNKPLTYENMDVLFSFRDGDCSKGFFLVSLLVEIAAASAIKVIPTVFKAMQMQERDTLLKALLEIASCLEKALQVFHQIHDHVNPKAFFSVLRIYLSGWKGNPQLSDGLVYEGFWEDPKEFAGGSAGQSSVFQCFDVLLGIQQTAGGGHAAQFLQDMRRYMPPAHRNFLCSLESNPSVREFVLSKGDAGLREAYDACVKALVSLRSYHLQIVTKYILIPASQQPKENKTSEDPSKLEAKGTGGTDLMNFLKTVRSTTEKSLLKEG

The molecule `Cc1ccc(NC(=O)Nc2cc(-c3cccc(C(=O)O)c3)ccc2N(CC(C)C)CC2CCC2)cc1` [Example 97, 4′-((cyclobutylmethyl) (isobutyl)amino)-3′-(3-p-tolylureido)biphenyl-3-carboxylic acid] yielded an IC50 of 4640 nM.
For the molecule `CC(C)CN(c1ccc(-c2cc(F)ccc2C(=O)O)cc1NC(=O)Nc1ccc(F)cc1F)C(C)C` [Example 158, 3′-(3-(2,4-difluorophenyl)ureido)-5-fluoro-4′-(isobutyl(isopropyl)amino)biphenyl-2-carboxylic acid], the midpoint of inhibition, the IC50, lay at 30 nM.
The molecule `CC(C)CN(CC(C)C)c1ccc(-c2ccccc2-c2nnn[nH]2)cc1NC(=O)Nc1ccccc1N1CCCCC1` [Example 270, 2-(4-(diisobutylamino)-2′-(1H-tetrazol-5-yl)-[1,1′-biphenyl]-3-yl)-3-(2-(piperidin-1-yl)phenyl)urea] displayed a half-inhibitory concentration (IC50) of 1830 nM.
As for `CC(C)CN(CC(C)C)c1ccc(-c2ccccc2-c2nnn[nH]2)cc1NC(=O)Nc1cccc(N=[N+]=[N-])c1` [Example 257, 1-(3-azidophenyl)-3-(4-(diisobutylamino)-2′-(1H-tetrazol-5-yl)-[1,1′-biphenyl]-3-yl)urea], the figure is 2.73 nM.
As for `Cc1ccc(NC(=O)Nc2cc(-c3ccccc3C(=O)O)ccc2N(CC(F)F)C2CCCCC2)cc1` [Example 196, 4′-(cyclohexyl(2,2-difluoroethyl)amino)-3′-(3-(p-tolyl)ureido)-[1,1′-biphenyl]-2-carboxylic acid], the figure is 20 nM; as for `Cc1ccc(NC(=O)Nc2cc(-c3ccccc3-c3nnn[nH]3)cc(F)c2N(CC(C)C)CC(C)C)cc1` [Example 5, 1-(4-(Diisobutylamino)-5-fluoro-2′-(1H-tetrazol-5-yl)biphenyl-3-yl)-3-p-tolylurea], 4.05 nM; as for `CCN(CC(C)(C)C)c1ccc(-c2ccccc2-c2nnn[nH]2)cc1NC(=O)Nc1ccccc1F` [Example 112, 1-(4-(ethyl(neopentyl)amino)-2′-(1H-tetrazol-5-yl)biphenyl-3-yl)-3-(2-fluorophenyl)urea], 30 nM.
Regarding `Cc1ccc(NC(=O)Nc2cc(-c3ccccc3-c3nnn[nH]3)ccc2N(Cc2ccccc2)CC(C)C)cc1` [Example 292, 1-(4-(benzyl(isobutyl)amino)-2′-(1H-tetrazol-5-yl)-[1,1′-biphenyl]-3-yl)-3-(p-tolyl)urea], 4.03 nM corresponded to half-maximal inhibition (IC50).
In turn, `Cc1ccc(NC(=O)Nc2cc(-c3ccc(Cl)cc3C(=O)O)ccc2N(CC(C)C)C2CCCCC2)cc1` [Example 120, 4-chloro-4′-(cyclohexyl(isobutyl)amino)-3′-(3-p-tolylureido)biphenyl-2-carboxylic acid] gave an IC50 of 30 nM.
As for `CC(C)CN(CC(C)C)c1ccc(-c2ccccc2-c2nn[nH]n2)cc1NC(=O)NC(C)(C)Cc1ccc(F)cc1` [Example 240, 1-(4-(diisobutylamino)-2′-(2H-tetrazol-5-yl)-[1,1′-biphenyl]-3-yl)-3-(1-(4-fluorophenyl)-2-methylpropan-2-yl)urea], the figure is 2230 nM; as for `Cc1ccc(NC(=O)Nc2cc(-c3ccccc3-c3nnn[nH]3)ccc2N(CCC(F)(F)F)Cc2ccc(Cl)cc2Cl)cc1` [Example 505, 1-(4-((2,4-Dichlorobenzyl)(3,3,3-trifluoropropyl)amino)-2′-(1H-tetrazol-5-yl)-[1,1′-biphenyl]-3-yl)-3-(p-tolyl)urea], 40 nM.
Regarding `Cc1ccc(NC(=O)Nc2cc(-c3ccccc3-c3nnn[nH]3)ccc2N(CC(C)C)CC2CC2)cc1` [Example 92, 1-(4-((cyclopropylmethyl) (isobutyl)amino)-2′-(1H-tetrazol-5-yl)biphenyl-3-yl)-3-p-tolylurea], the concentration for half-maximal inhibition (IC50) worked out at 20 nM. Compared with the last molecule, the IC50 is about 2-fold lower.
As for `Cc1ccc(NC(=O)Nc2cc(-c3ccccc3-c3nnn[nH]3)ccc2N2CCC(c3ccc(F)cc3)C2)cn1` (stereo not shown) [Example 387], the figure is 2230 nM; as for `CC(C)CN(CC(C)C)c1ccc(-c2ccccc2-c2nnn[nH]2)cc1NC(=O)NC(C)C` [Example 246, 1-(4-(diisobutylamino)-2′-(1H-tetrazol-5-yl)-[1,1′-biphenyl]-3-yl)-3-isopropylurea], 1220 nM; as for `Cc1ccc(NC(=O)Nc2cc(-c3ccccc3C(=O)O)ccc2N(C)c2ccccc2C(C)(C)C)cc1` [Example 481], 1840 nM.
As for `CC(C)CN(CC(C)C)c1ccc(-c2ccccc2-c2nnn[nH]2)cc1NC(=O)Nc1ncccn1` [Example 239, 1-(4-(Diisobutylamino)-2′-(1H-tetrazol-5-yl)-[1,1′-biphenyl]-3-yl)-3-(pyrimidin-2-yl)urea], the figure is 3860 nM.
As for `Cc1ccc(NC(=O)Nc2cc(-c3ccccc3C(=O)O)ccc2N(CC(C)C)CC2CCC2)cc1` [Example 100, 4′-((cyclobutylmethyl) (isobutyl)amino)-3′-(3-p-tolylureido)biphenyl-2-carboxylic acid], the figure is 90 nM; as for `CCC1CCCCN1c1ccc(-c2ccccc2-c2nnn[nH]2)cc1NC(=O)Nc1ccccc1F` (stereo not shown) [Example 109, 1-(4-(2-ethylpiperidin-1-yl)-2′-(1H-tetrazol-5-yl)biphenyl-3-yl)-3-(2-fluorophenyl)urea], 410 nM; as for `O=C(Nc1cc(-c2ccccc2-c2nnn[nH]2)ccc1N(CCC(F)(F)F)Cc1ccc(Cl)cc1Cl)Nc1ccccc1C(F)(F)F` [Example 335, 1-(4-((2,4-dichlorobenzyl)(3,3,3-trifluoropropyl)amino)-2′-(1H-tetrazol-5-yl)-[1,1′-biphenyl]-3-yl)-3-(2-(trifluoromethyl)phenyl)urea], 1080 nM.
For `CC(C)CN(CC(C)C)c1ccc(-c2ccccc2-c2nn[nH]n2)cc1NC(=O)Nc1c(F)cccc1F` [Example 283, 1-(2,6-difluorophenyl)-3-(4-(diisobutylamino)-2′-(2H-tetrazol-5-yl)-[1,1′-biphenyl]-3-yl)urea], the IC50 came out at 10 nM. This IC50 is about 110-fold lower than that of the molecule before.
As for `Cc1ccc(NC(=O)Nc2cc(-c3ccccc3-c3nnn[nH]3)ccc2N(C)C2CCCCCC2)cc1` [Example 79, 1-(4-(cycloheptyl(methyl)amino)-2′-(1H-tetrazol-5-yl)biphenyl-3-yl)-3-p-tolylurea], the IC50 was 1.81 nM. Compared with the last molecule, the IC50 is about 5.5-fold lower.
As for `O=C(Nc1ccc(C2CC2)cc1)Nc1cc(-c2ccccc2-c2nnn[nH]2)ccc1N(CCC(F)(F)F)Cc1ccccn1` [Example 304, 1-(4-cyclopropylphenyl)-3-(4-((pyridin-2-ylmethyl)(3,3,3-trifluoropropyl)amino)-2′-(1H-tetrazol-5-yl)-[1,1′-biphenyl]-3-yl)urea], the figure is 70 nM.
For the molecule `Cc1ccc(NC(=O)Nc2cc(-c3ccccc3-c3nnn[nH]3)ccc2N(CCCC(F)(F)F)Cc2ccc(Cl)cc2)cc1` [Example 320, 1-(4-((4-chlorobenzyl)(4,4,4-trifluorobutyl)amino)-2′-(1H-tetrazol-5-yl)-[1,1′-biphenyl]-3-yl)-3-(p-tolyl)urea], the 50% inhibitory concentration (IC50) came out at 4.85 nM.
As for `CC(C)CN(CC(C)C)c1ccc(-c2ccccc2-c2nnn[nH]2)cc1NC(=O)NC1CCCCC1` [Example 140, 1-cyclohexyl-3-(4-(diisobutylamino)-2′-(1H-tetrazol-5-yl)biphenyl-3-yl)urea], the figure is 2960 nM; as for `COc1ccc(-c2ccc(N(C)C3CCCCCC3)c(NC(=O)Nc3ccc(C)cc3)c2)cc1C(=O)O` [Example 78, 4′-(cycloheptyl(methyl)amino)-4-methoxy-3′-(3-p-tolylureido)biphenyl-3-carboxylic acid], 1920 nM.
As for `CC(C)CN(c1ccc(-c2ccccc2-c2nnn[nH]2)cc1NC(=O)Nc1ccccc1C(F)(F)F)C1CCCCC1` [Example 161, 1-(4-(cyclohexyl(isobutyl)amino)-2′-(1H-tetrazol-5-yl)biphenyl-3-yl)-3-(2-(trifluoromethyl)phenyl)urea], the figure is 240 nM.
As for `Cc1ccc(NC(=O)Nc2cc(-c3ccccc3NS(=O)(=O)C(F)(F)F)ccc2N(CC(C)C)CC(C)C)cc1` [Example 4, N-(4′-(Diisobutylamino)-3′-(3-p-tolylureido)biphenyl-2-yl)-1,1,1-trifluoromethanesulfonamide], the figure is 80 nM.
`CC(C)CN(CC(C)C)c1ccc(-c2ccccc2-c2nnn[nH]2)cc1NC(=O)Nc1ccccc1C1CC1` [Example 274, 1-(2-cyclopropylphenyl)-3-(4-(diisobutylamino)-2′-(1H-tetrazol-5-yl)-[1,1′-biphenyl]-3-yl)urea] returned an IC50 of 460 nM.
As for `Cc1ccc(NC(=O)Nc2cc(-c3ccccc3-c3nnn[nH]3)ccc2N(CCC(F)(F)F)Cc2ccc(F)cc2)cc1` [Example 325, 1-(4-((4-fluorobenzyl)(3,3,3-trifluoropropyl)amino)-2′-(1H-tetrazol-5-yl)-[1,1′-biphenyl]-3-yl)-3-(p-tolyl)urea], the figure is 90 nM; as for `COC(=O)c1cnc(NC(=O)Nc2cc(-c3ccccc3-c3nnn[nH]3)ccc2N(CC(C)C)CC(C)C)s1` [Example 144, methyl 2-(3-(4-(diisobutylamino)-2′-(1H-tetrazol-5-yl)biphenyl-3-yl)ureido)thiazole-5-carboxylate], 10 nM; as for `CCCN(Cc1ccccc1)c1ccc(-c2cc(F)ccc2C(=O)O)cc1NC(=O)Nc1ccc(C)cc1` [Example 186, 4′-(benzyl(propyl)amino)-5-fluoro-3′-(3-(p-tolyl)ureido)-[1,1′-biphenyl]-2-carboxylic acid], 30 nM.
The molecule `O=C(Nc1ccc(C2CC2)c(F)c1)Nc1cc(-c2ccccc2-c2nnn[nH]2)ccc1N(CCC(F)(F)F)Cc1ccccn1` [Example 354, 1-(4-cyclopropyl-3-fluorophenyl)-3-(4-((pyridin-2-ylmethyl)(3,3,3-trifluoropropyl)amino)-2′-(1H-tetrazol-5-yl)-[1,1′-biphenyl]-3-yl)urea] had a concentration for half-maximal inhibition (IC50) of 120 nM.
As for `CC(C)CN(c1ccc(-c2ccccc2C(=O)O)cc1NC(=O)Nc1ccccc1C(F)(F)F)C1CCCCC1` [Example 162, 4′-(cyclohexyl (isobutyl)amino)-3′-(3-(2-(trifluoromethyl)phenyl)ureido)biphenyl-2-carboxylic acid], the figure is 1270 nM; as for `CC(C)CN(c1ccc(-c2cc(F)ccc2C(=O)O)cc1NC(=O)Nc1ccccc1F)C1CCCCC1` [Example 125, 4′-(cyclohexyl(isobutyl)amino)-5-fluoro-3′-(3-(2-fluorophenyl)ureido) biphenyl-2-carboxylic acid], 5.92 nM.
